# Data as given in PubChem BioAssay AID248 (DTP/NCI, 2004).
# Several values for one entry are separate records, joined by “and”; a condition that tells them apart may be missing. Equal values may be shown once. Toxic doses and inconclusive results are not listed.
# System: L1210 leukemia ip in BDF1 mice, survival T/C
# Experiment: NCI In Vivo Anticancer Drug Screen. Data for tumor model L1210 Leukemia (intraperitoneal) in B6D2F1 (BDF1) mice
# Conditions: endpoint: mean survival time, higher = longer survival
# Summary of the method: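 Transplantable tumor model; survival measured in treated vs vehicle control mice. Value = treated/control.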
structure (smiles),measurement,setting,value
O=c1[nH]cc(N(CCCl)CCCl)c(=O)[nH]1,T/C,"dose: 0.04 mg/kg/injection, schedule: Q01DX001 (ip), vehicle: carboxymethylcellulose (CMC)",106 % of control
same,T/C,"dose: 0.05 mg/kg/injection, schedule: Q01DX Z (ip), vehicle: carboxymethylcellulose (CMC)",107 % of control
same,T/C,"dose: 0.05 mg/kg/injection, schedule: Q#A X Z (ip), vehicle: carboxymethylcellulose (CMC)",101 % of control
same,T/C,"dose: 0.07 mg/kg/injection, schedule: Q01DX001 (ip), vehicle: carboxymethylcellulose (CMC)",101 % of control
same,T/C,"dose: 0.07 mg/kg/injection, schedule: Q03DX006 (ip), vehicle: carboxymethylcellulose (CMC)",123 % of control
same,T/C,"dose: 0.09 mg/kg/injection, schedule: Q#A X Z (ip), vehicle: carboxymethylcellulose (CMC)",106 % of control
same,T/C,"dose: 0.1 mg/kg/injection, schedule: Q01DX Z (ip), vehicle: carboxymethylcellulose (CMC)",102 % of control
same,T/C,"dose: 0.1 mg/kg/injection, schedule: Q01DX Z (ip), vehicle: saline",157 % of control
same,T/C,"dose: 0.13 mg/kg/injection, schedule: Q01DX001 (ip), vehicle: carboxymethylcellulose (CMC)",100 % of control
same,T/C,"dose: 0.16 mg/kg/injection, schedule: Q07DX003 (ip), vehicle: carboxymethylcellulose (CMC)",108 % of control
same,T/C,"dose: 0.19 mg/kg/injection, schedule: Q#A X Z (ip), vehicle: carboxymethylcellulose (CMC)",110 % of control
same,T/C,"dose: 0.25 mg/kg/injection, schedule: Q01DX001 (ip), vehicle: carboxymethylcellulose (CMC)",105 % of control
same,T/C,"dose: 0.3 mg/kg/injection, schedule: Q01DX Z (ip), vehicle: saline",159 % of control
same,T/C,"dose: 0.3 mg/kg/injection, schedule: Q03DX006 (ip), vehicle: carboxymethylcellulose (CMC)",109 % of control
same,T/C,"dose: 0.32 mg/kg/injection, schedule: Q07DX003 (ip), vehicle: carboxymethylcellulose (CMC)",102 % of control
same,T/C,"dose: 0.37 mg/kg/injection, schedule: Q#A X Z (ip), vehicle: carboxymethylcellulose (CMC)",119 % of control
same,T/C,"dose: 0.38 mg/kg/injection, schedule: Q01DX006 (iv), vehicle: carboxymethylcellulose (CMC)",91 % of control
same,T/C,"dose: 0.38 mg/kg/injection, schedule: Q01DX Z (im), vehicle: carboxymethylcellulose (CMC)",98 % of control
same,T/C,"dose: 0.38 mg/kg/injection, schedule: Q01DX Z (sc), vehicle: carboxymethylcellulose (CMC)",104 % of control
same,T/C,"dose: 0.5 mg/kg/injection, schedule: Q01DX001 (ip), vehicle: carboxymethylcellulose (CMC)",170 % of control
same,T/C,"dose: 0.6 mg/kg/injection, schedule: Q03DX006 (ip), vehicle: carboxymethylcellulose (CMC)",170 % of control
same,T/C,"dose: 0.63 mg/kg/injection, schedule: Q07DX003 (ip), vehicle: carboxymethylcellulose (CMC)",121 % of control
same,T/C,"dose: 0.7 mg/kg/injection, schedule: Q01DX Z (ip), vehicle: saline",101 % of control
same,T/C,"dose: 0.75 mg/kg/injection, schedule: Q01DX006 (iv), vehicle: carboxymethylcellulose (CMC)",110 % of control
same,T/C,"dose: 0.75 mg/kg/injection, schedule: Q01DX015 (ip), vehicle: carboxymethylcellulose (CMC)",178 % of control
same,T/C,"dose: 0.75 mg/kg/injection, schedule: Q01DX Z (im), vehicle: carboxymethylcellulose (CMC)",101 % of control
same,T/C,"dose: 0.75 mg/kg/injection, schedule: Q01DX Z (ip), vehicle: carboxymethylcellulose (CMC)",119 % of control
same,T/C,"dose: 0.75 mg/kg/injection, schedule: Q01DX Z (sc), vehicle: carboxymethylcellulose (CMC)",107 % of control
same,T/C,"dose: 0.8 mg/kg/injection, schedule: Q01DX Z (ip), vehicle: other",109 % of control
same,T/C,"dose: 1.1 mg/kg/injection, schedule: Q01DX015 (ip), vehicle: carboxymethylcellulose (CMC)",182 % of control
same,T/C,"dose: 1.1 mg/kg/injection, schedule: Q03DX006 (ip), vehicle: carboxymethylcellulose (CMC)",181 % of control
same,T/C,"dose: 1.2 mg/kg/injection, schedule: Q01DX Z (ip), vehicle: alkali diluted with saline",118 % of control
same,T/C,"dose: 1.2 mg/kg/injection, schedule: Q01DX Z (ip), vehicle: saline",159 % of control
same,T/C,"dose: 1.25 mg/kg/injection, schedule: Q07DX003 (ip), vehicle: carboxymethylcellulose (CMC)",114 % of control and 201 % of control
same,T/C,"dose: 1.3 mg/kg/injection, schedule: Q01DX Z (ip), vehicle: other",120 % of control
same,T/C,"dose: 1.5 mg/kg/injection, schedule: Q01DX006 (iv), vehicle: carboxymethylcellulose (CMC)",104 % of control and 109 % of control
same,T/C,"dose: 1.5 mg/kg/injection, schedule: Q01DX Z (im), vehicle: carboxymethylcellulose (CMC)",108 % of control
same,T/C,"dose: 1.5 mg/kg/injection, schedule: Q01DX Z (ip), vehicle: carboxymethylcellulose (CMC)",115 % of control
same,T/C,"dose: 1.5 mg/kg/injection, schedule: Q01DX Z (oral), vehicle: carboxymethylcellulose (CMC)",119 % of control
same,T/C,"dose: 1.5 mg/kg/injection, schedule: Q01DX Z (sc), vehicle: carboxymethylcellulose (CMC)",115 % of control
same,T/C,"dose: 1.5 mg/kg/injection, schedule: Q#A X Z (ip), vehicle: carboxymethylcellulose (CMC)",111 % of control
same,T/C,"dose: 1.6 mg/kg/injection, schedule: Q01DX001 (ip), vehicle: gum acacia",110 % of control
same,T/C,"dose: 1.7 mg/kg/injection, schedule: Q01DX015 (ip), vehicle: carboxymethylcellulose (CMC)",170 % of control
same,T/C,"dose: 1.8 mg/kg/injection, schedule: Q01DX Z (ip), vehicle: alkali diluted with saline",112 % of control
same,T/C,"dose: 1.8 mg/kg/injection, schedule: Q01DX Z (ip), vehicle: other",109 % of control
same,T/C,"dose: 2.0 mg/kg/injection, schedule: Q01DX001 (ip), vehicle: carboxymethylcellulose (CMC)",109 % of control and 123 % of control
same,T/C,"dose: 2.4 mg/kg/injection, schedule: Q01DX001 (ip), vehicle: gum acacia",186 % of control
same,T/C,"dose: 2.5 mg/kg/injection, schedule: Q01DX Z (ip), vehicle: alkali diluted with saline",116 % of control
same,T/C,"dose: 2.7 mg/kg/injection, schedule: Q01DX Z (ip), vehicle: other",124 % of control
same,T/C,"dose: 3.0 mg/kg/injection, schedule: Q01DX006 (iv), vehicle: carboxymethylcellulose (CMC)",112 % of control
same,T/C,"dose: 3.0 mg/kg/injection, schedule: Q01DX Z (ip), vehicle: carboxymethylcellulose (CMC)",105 % of control and 115 % of control
same,T/C,"dose: 3.0 mg/kg/injection, schedule: Q01DX Z (ip), vehicle: saline",112 % of control
same,T/C,"dose: 3.6 mg/kg/injection, schedule: Q01DX001 (ip), vehicle: carboxymethylcellulose (CMC)",163 % of control
same,T/C,"dose: 3.6 mg/kg/injection, schedule: Q01DX001 (ip), vehicle: gum acacia",150 % of control
same,T/C,"dose: 3.7 mg/kg/injection, schedule: Q01DX Z (ip), vehicle: saline",90 % of control
same,T/C,"dose: 4.5 mg/kg/injection, schedule: Q03DX006 (ip), vehicle: carboxymethylcellulose (CMC)",111 % of control
same,T/C,"dose: 5.0 mg/kg/injection, schedule: Q01DX001 (ip), vehicle: carboxymethylcellulose (CMC)",161 % of control
same,T/C,"dose: 5.0 mg/kg/injection, schedule: Q07DX003 (ip), vehicle: carboxymethylcellulose (CMC)",188 % of control
same,T/C,"dose: 5.4 mg/kg/injection, schedule: Q01DX001 (ip), vehicle: gum acacia",172 % of control and 330 % of control
same,T/C,"dose: 6.0 mg/kg/injection, schedule: Q01DX Z (im), vehicle: carboxymethylcellulose (CMC)",95 % of control
same,T/C,"dose: 6.0 mg/kg/injection, schedule: Q01DX Z (oral), vehicle: carboxymethylcellulose (CMC)",104 % of control
same,T/C,"dose: 6.0 mg/kg/injection, schedule: Q01DX Z (sc), vehicle: carboxymethylcellulose (CMC)",105 % of control
same,T/C,"dose: 6.0 mg/kg/injection, schedule: Q#A X Z (ip), vehicle: carboxymethylcellulose (CMC)",154 % of control
same,T/C,"dose: 10.0 mg/kg/injection, schedule: Q01DX001 (ip), vehicle: carboxymethylcellulose (CMC)",105 % of control and 123 % of control
same,T/C,"dose: 12.0 mg/kg/injection, schedule: Q01DX006 (iv), vehicle: carboxymethylcellulose (CMC)",115 % of control
same,T/C,"dose: 20.0 mg/kg/injection, schedule: Q01DX001 (ip), vehicle: carboxymethylcellulose (CMC)",120 % of control
same,T/C,"dose: 29.0 micrograms/kg/injection, schedule: Q01DX Z (ip), vehicle: saline",119 % of control
same,T/C,"dose: 44.0 micrograms/kg/injection, schedule: Q01DX Z (ip), vehicle: saline",121 % of control
same,T/C,"dose: 100.0 micrograms/kg/injection, schedule: Q01DX Z (ip), vehicle: saline",113 % of control
C[N+](C)(C)C12CCCCC1S(=O)(=O)C2 (stereo not drawn),T/C,"dose: 75.0 mg/kg/injection, schedule: Q01DX001 (ip), vehicle: saline",108 % of control
NC(=O)NCCO,T/C,"dose: 100.0 mg/kg/injection, schedule: Q01DX001 (ip), vehicle: saline",98 % of control
same,T/C,"dose: 200.0 mg/kg/injection, schedule: Q01DX001 (ip), vehicle: saline",106 % of control
same,T/C,"dose: 400.0 mg/kg/injection, schedule: Q01DX001 (ip), vehicle: saline",98 % of control
